Assays:
[1] = tested on: histamine-challenged rats; test: Nasal airway pressure in histamine-challenged rats; details: for Nasal airway pressure, Post Drug: 100% dose i.v. two minutes after histamine; for Nasal airway pressure, Post Histamine: after intranasal histamine 50 mM 0.02 ml/nostril, before drug; for Nasal airway pressure, Control: before histamine and drug; for Mean decrease in nasal airway pressure, % Change: post drug vs post histamine
α2-receptors = test: ALPHA-2 binding, p-125Iodoclonidine, canine brain (frontal cortex) membranes; design: species or system dog
Method: Membranes of mongrel dogs were harvested from the canine frontal cortex and prepared as described for lung except that the final membrane protein concentration was adjusted to 0.5 mg/ml.
Nonspecific binding was determined in separate incubations in the presence of 10 μM phentolamine. The final concentration of p-iodoclonidine was 44-45 pM in competition studies and between 50 pM and 10 nM in saturation experiments. Bound and free […] were separated and the bound quantitated as described above for the ICYP assays.
All data were analyzed with the aid of microcomputer nonlinear curve fitting programs (PRISM 2.0, Graphpad Software, San Diego Calif.).
The receptors resident in each of the three membrane preparations were evaluated by standard saturation analysis following the addition of increasing concentrations of the appropriate radioligand.
The radio ligand added for subsequent α2-displacement assays was adjusted to evaluate only the high affinity receptor. Contributions from p-iodoclonidine binding to imidazoline receptors in the α2-displacement assay were evaluated with epinephrine.

Swiss-Webster mice = details: mice pretreated with 0.01, 0.1 or 1.0 mg/kg triprolidine

CN[C@@H](C)[C@H](O)c1ccccc1 [(−)-ephedrine]
Nasal airway pressure, Post Drug [1]: 6.4 mm water
Nasal airway pressure, Post Histamine [1]: 8.2 ± 0.7 mm water
Nasal airway pressure, Control [1]: 6.7 ± 0.4 mm water
Mean decrease in nasal airway pressure, % Change [1]: −21.8%

CNC[C@H](O)c1cccc(O)c1 [(−)-phenylephrine]
Nasal airway pressure, Post Drug [1]: 10.5 mm water
Nasal airway pressure, Post Histamine [1]: 13.2 ± 2.1 mm water
Nasal airway pressure, Control [1]: 7.5 ± 0.5 mm water
Mean decrease in nasal airway pressure, % Change [1]: −22.3%
modification of stimulant or depressant effects by triprolidine pretreatment (Swiss-Webster mice): did not show significant modification of stimulant or depressant effects
